A word on the IC50: it is the concentration needed to halve the response being measured. Lower therefore signals greater potency in that assay.

One experiment addresses T1, Human Renin (Homo sapiens, UniProt P00797).
T1 construct: purchased National Institute for Biological Standards, London
T1 sequence (P00797 67-406): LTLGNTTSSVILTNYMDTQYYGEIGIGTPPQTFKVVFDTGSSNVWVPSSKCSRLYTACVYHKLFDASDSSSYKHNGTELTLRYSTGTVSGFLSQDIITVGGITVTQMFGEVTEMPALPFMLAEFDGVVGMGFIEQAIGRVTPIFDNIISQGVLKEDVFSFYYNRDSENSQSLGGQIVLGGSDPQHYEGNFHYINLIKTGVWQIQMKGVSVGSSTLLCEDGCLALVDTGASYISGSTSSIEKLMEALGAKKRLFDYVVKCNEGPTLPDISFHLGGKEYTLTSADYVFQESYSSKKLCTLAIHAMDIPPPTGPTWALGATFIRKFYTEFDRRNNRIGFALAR
The experiment in a line: human renin inhibition test in vitro (angiotensin I by radioimmunoassay). The class given is biochemical. The following applies: pH 7.4, 37° C., two hours, human plasma. Here is the method:
Compounds of Formula I were evaluated as inhibitors of human renin in an in vitro assay, as follows: This human renin inhibition test has been previously described in detail [Papaioannou et al., Clinical and Experimental Hypertension, A7(9), 1243-1257 (1985)]. Human renin was obtained from the National Institute for Biological Standards, London. An incubation mixture was prepared containing in a total volume of 0.25 mL 100 mM Tris-acetate buffer at pH 7.4, 25×10^-6 Goldblatt units of renin, 0.05 mL of plasma from human volunteers taking oral contraceptives, 6.0 mM sodium EDTA, 2.4 mM phenylmethyl sulfonyl fluoride, 1.5 mM 8-hydroxyquinoline, 0.4 mg/mL BSA, and 0.024 mg/mL neomycin sulfate. This mixture was incubated for two hours at 37° C. in the presence or absence of renin inhibitors. The produced angiotensin I was determined by radioimmunoassay (New England Nuclear kit). Test compounds to be assayed were solubilized in DMSO and diluted with 100 mM Trisacetate buffer at pH 7.4 containing 0.5% bovine serum albumin (BSA) to the appropriate concentration. The final concentration of organic solvent in the reaction mixture was less than 1%. Control incubations at 37° C. were used to correct for effects of organic solvent on renin activity.

A further experiment has as its system hog renin. The following applies: after injection of hog renin into nephrectomized rats; cited from earlier work.
The test system of the next experiment is renin. The following applies: cited from earlier work.
A further experiment deals with cathepsin D. The following applies: cited from earlier work.
The test system of a further experiment is pepsin. The following applies: cited from earlier work.

Structures are written as SMILES. Where a SMILES comes first, the peptide text is derived from it. [ ]: non-standard residue; d: D form. The star is where a group is joined. Sta = CC(C)C[C@H](N)[C@@H](O)CC(=O)O; Isovaleryl = CC(C)CC(=O)*

Consider `CC(C)C[C@H](O)[C@H](O)[C@H](CC1CCCCC1)NC(=O)[C@H](C)CNC(=O)[C@H](Cc1ccccc1)OC(=O)N(C)CCN(C)CCN(C)C` [Example 12], for which the IC50 against Human Renin was determined as 110 nM.

As to `CC(C)CC(=O)N[C@H](C(=O)N[C@H](C(=O)N[C@@H](CC(C)C)[C@@H](O)CC(=O)N[C@@H](C)C(=O)N[C@@H](CC(C)C)[C@@H](O)CC(=O)O)C(C)C)C(C)C` [pepstatin] (Isovaleryl-VV[Sta]A[Sta]-OH), the “reduce blood pressure in vivo” value with hog renin is reported as “found to reduce blood pressure in vivo”. In addition, in the experiment with renin, the inhibitor of renin entry is “inhibitor”. The “inhibitor of cathepsin D” value in the experiment on cathepsin D was “inhibitor”. Further, the inhibitor of pepsin entry with pepsin is reported as “inhibitor”.

In turn, `CC(C)C[C@H](O)[C@H](O)[C@H](CC1CCCCC1)NC(=O)[C@H](Cc1cnc[nH]1)NC(=O)[C@H](Cc1ccccc1)OC(=O)N(C)CCN(C)CCN(C)C` [Example 11, O-{N-[2-{N-[2-(N,N-dimethylamino)ethyl]-N-methylamino}-ethyl]-N-methylaminocarbonyl}-3-L-phenyllactyl-L-histidineamide of (2S,3R,4S)-2-amino-1-cyclohexyl-3,4-dihydroxy-6-methylheptane] yielded an IC50 against Human Renin of 1 nM.

For `CC(C)C[C@H](NC(=O)[C@H](Cc1ccccc1)OC(=O)N(C)CCN(C)CCN(C)C)C(=O)N[C@@H](CC1CCCCC1)[C@@H](O)[C@@H](O)CC(C)C` [Example 10], the IC50 against Human Renin is 2.4 nM.
